Data on 15 compounds can be found in article PMC3960075 (ACS chemical biology, 2012).

For one data set, the system named is influenza A/PR/8/34. Put plainly: microbe, parasite or virus in culture. It is filed as cell-based, avian H1N1 influenza A virus (A/PuertoRico/8/34). The conditions noted are these: for IC50: Influenza A virus, PR/8, MDCK, read-out: IC50, viral plaque inhibition.
In data set [1] the target is T1, PAN endonuclease (influenza virus PA N-terminal domain) (Influenza A virus, UniProt Q5EP34). The class given is binding.
In data set [2] the target is T1, PAN endonuclease (influenza virus PA N-terminal domain). The class given is binding. This is another data set of the same source.
A further data set deals with immunoglobulin G (IgG). Put plainly: Direct binding FP specificity control with IgG. To be noted: IgG 2-fold serial dilutions from 100 μM, 4 at 60 nM.
The nature of the next data set: in vitro. To be noted: dog.

“Also recorded” adds a separate entry of the source.

The term IC50 denotes the midpoint of a concentration-inhibition curve.

In the case of `CCC(CC)O[C@@H]1C=C(C(=O)O)C[C@H](N)[C@H]1NC(C)=O` [oseltamivir carboxylate, reference compound], the “inhibition of viral plaque formation” value with influenza A/PR/8/34 worked out at 100%.

Take `CC(C)(C)OC(=O)/C(O)=C/C(=O)c1ccccc1` [Compound 17]: in data set [1], the “FP competitive binding, result in words” value is listed as “inactivity”. For the compound `O=C(O)C(=O)C1=C(O)c2ccccc2OC1` [Compound 14], the “FP competitive binding, result in words” value in data set [1] is “inactive”. On to `O=C(O)/C(O)=C/C(=O)C1(Cc2ccc(Cl)cc2)CCN(Cc2ccccc2)CC1` [Compound 2, reference compound], for which the “inhibition (displacement of 4 from PAN)” value in data set [1] (250 µM) is 100%. In addition, in the data set with influenza A/PR/8/34, the IC50 came out at 3.13 ± 0.08 µM. As for `O=C(NCCc1ccccc1)c1nc(-c2cnccn2)[nH]c(=O)c1O` [Compound 43], in the data set on influenza A/PR/8/34, the “Inhibition of viral plaque formation, result in words” value was “inactive” and the IC50 was over 100 µM. On to `O=C(O)CCC(=O)c1ccccc1` [Compound 19], for which, in data set [1], the “FP competitive binding, result in words” value is “no inhibition; also recorded: inactive”. Consider `COc1ccc2c(c1)CC(C(=O)C(=O)O)=C2O` [Compound 15], for which the “FP competitive binding, result in words” value in data set [1] was “inactive”. The same measure, in the same setting: to `O=C(O)/C=C/C(=O)c1ccccc1` [Compound 18] belongs “inactive”. In data set [2], `O=C(O)/C(O)=C/C(=O)C1(Cc2ccc(Cl)cc2)CCN(C(=O)c2ccc(-c3c4ccc(=O)cc-4oc4cc(O)ccc34)c(C(=O)O)c2)CC1` [Compound 4] returned a dynamic range of 124.3 ± 0.9 mP. Besides, the “Non-specific binding to IgG” value in the data set with immunoglobulin G (IgG) is listed as “not observed”. In the case of `O=C(O)/C(O)=C/C(=O)c1cccnc1` [Compound 13], the “FP competitive binding, result in words” value in data set [1] is “inactive”. Regarding `COC(=O)/C(O)=C/C(=O)c1ccccc1` [Compound 16, reference compound], the “FP competitive binding, result in words” value in data set [1] is “inactivity”. In the data set with influenza A/PR/8/34, the “Inhibition of viral plaque formation, result in words” value is “inactive” and the half-inhibitory concentration (IC50) is over 100 µM.

For the compound `CC(NC(=O)c1nc(-c2cnccn2)[nH]c(=O)c1O)c1ccccc1` (centres unmarked) [Compound 42], the IC50 with influenza A/PR/8/34 turned out to be 14.28 ± 0.07 µM. The same compound showed a CC50 in “in vitro” of over 60 µM. As for `C[C@H](NC(=O)c1nc(-c2cnccn2)[nH]c(=O)c1O)c1ccccc1` [Compound 44], the IC50 with influenza A/PR/8/34 is 18.61 ± 0.09 µM. Further, the CC50 in “in vitro” was over 60 µM. Taken in the same sequence, the figures for `C[C@@H](NC(=O)c1nc(-c2cnccn2)[nH]c(=O)c1O)c1ccccc1` [Compound 45] were 12.68 ± 0.08 µM and over 60 µM. Take `O=C(O)c1nc(-c2cnccn2)nc(O)c1O` [Compound 31]: the IC50 in the data set on influenza A/PR/8/34 is over 50 µM.
